From paper PMC9600963, “Cation ATPase (ATP4) Orthologue Replacement in the Malaria Parasite Plasmodium knowlesi Reveals Species-Specific Responses to ATP4-Targeting Drugs” (mBio, 2022)

What was measured:
Type in all cases: cell-based
PvATP4 (PvATP4^OR line) [1] = biological target: T1, PvATP4 (PvATP4^OR line) (Plasmodium vivax, UniProt A5K0L8); assay: growth inhibition of orthologue replacement parasite line, SYBR green I (whole-cell read-out); conditions: intact P. knowlesi parasites in erythrocytes, 27 h (one life cycle); not a direct enzyme assay
T1 construct: gene PVX_084625; full-length recodonized coding region replacing pkatp4 in P. knowlesi A1-H.1; untagged; intact parasites
Text: growth inhibition of orthologue replacement parasite line, SYBR green I (whole-cell read-out) on PvATP4 (PvATP4^OR line)

[2] = biological target: T2, PocATP4 (PocATP4^OR line) (Plasmodium ovale, UniProt A0A1D3TM67); assay: as above; conditions: intact P. knowlesi parasites in erythrocytes, 27 h (one life cycle); not a direct enzyme assay
T2 construct: gene ATP4; full-length recodonized coding region replacing pkatp4 in P. knowlesi A1-H.1; untagged; intact parasites
T2 sequence (A0A1D3TM67 1-1433): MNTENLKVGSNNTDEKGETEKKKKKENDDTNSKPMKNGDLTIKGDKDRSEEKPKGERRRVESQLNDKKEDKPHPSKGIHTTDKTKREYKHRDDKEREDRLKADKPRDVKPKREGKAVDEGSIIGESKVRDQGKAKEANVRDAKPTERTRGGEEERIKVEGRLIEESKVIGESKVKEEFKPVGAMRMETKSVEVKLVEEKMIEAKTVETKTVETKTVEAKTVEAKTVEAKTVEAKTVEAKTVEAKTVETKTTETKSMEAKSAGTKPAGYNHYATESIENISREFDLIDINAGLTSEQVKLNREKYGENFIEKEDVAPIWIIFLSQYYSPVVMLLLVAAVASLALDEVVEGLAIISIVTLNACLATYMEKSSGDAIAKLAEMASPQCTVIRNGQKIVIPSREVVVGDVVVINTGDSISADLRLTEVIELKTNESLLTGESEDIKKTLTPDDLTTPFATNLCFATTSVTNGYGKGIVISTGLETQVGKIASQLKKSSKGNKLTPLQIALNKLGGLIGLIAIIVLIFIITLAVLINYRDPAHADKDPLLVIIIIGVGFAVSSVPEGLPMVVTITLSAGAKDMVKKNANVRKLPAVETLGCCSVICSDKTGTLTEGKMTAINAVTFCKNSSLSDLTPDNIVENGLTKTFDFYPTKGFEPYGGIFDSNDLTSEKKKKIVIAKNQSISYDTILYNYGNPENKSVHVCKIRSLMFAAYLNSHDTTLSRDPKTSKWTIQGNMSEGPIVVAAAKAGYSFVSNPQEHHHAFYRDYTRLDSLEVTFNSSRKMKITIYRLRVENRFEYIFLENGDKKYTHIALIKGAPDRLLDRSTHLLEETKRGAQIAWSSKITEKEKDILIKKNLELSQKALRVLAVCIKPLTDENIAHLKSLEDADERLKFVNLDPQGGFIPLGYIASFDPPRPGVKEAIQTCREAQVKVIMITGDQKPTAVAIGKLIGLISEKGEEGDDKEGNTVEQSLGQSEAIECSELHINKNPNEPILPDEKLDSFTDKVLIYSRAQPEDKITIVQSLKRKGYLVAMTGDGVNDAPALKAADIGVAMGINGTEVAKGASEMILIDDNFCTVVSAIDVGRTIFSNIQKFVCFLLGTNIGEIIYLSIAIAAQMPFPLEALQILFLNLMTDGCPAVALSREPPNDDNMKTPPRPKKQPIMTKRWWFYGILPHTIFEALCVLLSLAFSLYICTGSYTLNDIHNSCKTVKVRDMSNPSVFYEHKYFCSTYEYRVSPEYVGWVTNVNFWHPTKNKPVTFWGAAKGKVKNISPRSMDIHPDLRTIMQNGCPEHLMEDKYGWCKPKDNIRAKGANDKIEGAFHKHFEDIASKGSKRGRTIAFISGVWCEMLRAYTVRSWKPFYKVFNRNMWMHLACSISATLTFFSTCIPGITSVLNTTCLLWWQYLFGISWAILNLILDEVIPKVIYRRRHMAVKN
Text: growth inhibition of orthologue replacement parasite line, SYBR green I (whole-cell read-out) on PocATP4 (PocATP4^OR line)

PmATP4 (PmATP4^OR line) [3] = biological target: T3, PmATP4 (PmATP4^OR line) (Plasmodium malariae, UniProt A0A1A8WBD6); assay: as above; conditions: intact P. knowlesi parasites in erythrocytes, 27 h (one life cycle); not a direct enzyme assay
T3 construct: gene ATP4; full-length recodonized coding region replacing pkatp4 in P. knowlesi A1-H.1; untagged; intact parasites
T3 sequence (A0A1A8WBD6 1-1380): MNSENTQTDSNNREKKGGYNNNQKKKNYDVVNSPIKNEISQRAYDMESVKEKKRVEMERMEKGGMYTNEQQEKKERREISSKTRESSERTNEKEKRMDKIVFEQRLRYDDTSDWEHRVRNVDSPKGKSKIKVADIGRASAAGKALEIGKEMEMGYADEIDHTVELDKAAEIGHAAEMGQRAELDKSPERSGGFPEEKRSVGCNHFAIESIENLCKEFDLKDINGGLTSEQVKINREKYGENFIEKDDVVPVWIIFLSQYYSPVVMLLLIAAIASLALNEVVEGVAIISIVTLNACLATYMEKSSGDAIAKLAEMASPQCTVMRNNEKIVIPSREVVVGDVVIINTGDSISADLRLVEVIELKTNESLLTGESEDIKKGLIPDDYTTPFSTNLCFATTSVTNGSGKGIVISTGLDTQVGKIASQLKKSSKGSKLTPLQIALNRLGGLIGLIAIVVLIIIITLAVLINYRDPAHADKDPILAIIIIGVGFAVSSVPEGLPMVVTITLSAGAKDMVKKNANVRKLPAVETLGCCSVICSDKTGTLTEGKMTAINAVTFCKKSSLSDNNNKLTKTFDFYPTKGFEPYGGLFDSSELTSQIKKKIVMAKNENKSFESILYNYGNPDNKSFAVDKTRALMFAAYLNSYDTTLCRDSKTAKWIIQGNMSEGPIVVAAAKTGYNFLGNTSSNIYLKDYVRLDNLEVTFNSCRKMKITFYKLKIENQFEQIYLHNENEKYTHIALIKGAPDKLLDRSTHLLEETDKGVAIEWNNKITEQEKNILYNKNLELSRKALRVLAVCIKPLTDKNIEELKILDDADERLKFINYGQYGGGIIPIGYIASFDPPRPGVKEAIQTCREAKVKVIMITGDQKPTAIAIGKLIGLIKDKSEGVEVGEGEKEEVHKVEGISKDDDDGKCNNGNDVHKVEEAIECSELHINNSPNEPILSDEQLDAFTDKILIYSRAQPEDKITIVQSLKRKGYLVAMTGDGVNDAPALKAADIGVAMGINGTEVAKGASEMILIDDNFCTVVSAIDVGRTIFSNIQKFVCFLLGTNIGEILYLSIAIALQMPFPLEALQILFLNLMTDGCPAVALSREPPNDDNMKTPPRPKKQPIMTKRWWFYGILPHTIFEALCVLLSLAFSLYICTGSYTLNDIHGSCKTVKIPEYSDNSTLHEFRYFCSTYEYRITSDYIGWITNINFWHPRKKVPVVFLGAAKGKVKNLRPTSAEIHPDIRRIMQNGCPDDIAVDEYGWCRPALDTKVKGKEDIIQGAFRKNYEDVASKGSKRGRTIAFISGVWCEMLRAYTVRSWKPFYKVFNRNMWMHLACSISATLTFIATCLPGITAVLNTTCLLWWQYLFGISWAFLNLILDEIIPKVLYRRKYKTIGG
Text: growth inhibition of orthologue replacement parasite line, SYBR green I (whole-cell read-out) on PmATP4 (PmATP4^OR line)

PfATP4 (PfATP4^OR line) [4] = biological target: T4, PfATP4 (PfATP4^OR line) (Plasmodium falciparum, UniProt A0A143ZZK9); assay: SBFI fluorescence of intracellular Na+ in saponin-isolated trophozoites; conditions: 0.1 µM, physiological saline, pH 7.1, 37°C
T4 construct: gene ATP4; full-length recodonized coding region replacing pkatp4 in P. knowlesi A1-H.1; untagged; intact parasites
Text: SBFI fluorescence of intracellular Na+ in saponin-isolated trophozoites on PfATP4 (PfATP4^OR line)

PkATP4 (PkATP4^OR line) [5] = biological target: T5, PkATP4 (PkATP4^OR line) (Plasmodium knowlesi, UniProt A0A384LKC1); assay: growth inhibition of orthologue replacement parasite line, SYBR green I (whole-cell read-out); conditions: intact P. knowlesi parasites in erythrocytes, 27 h (one life cycle); not a direct enzyme assay
T5 construct: gene PKNH_1312000; untagged; intact parasites
T5 sequence (A0A384LKC1 1-1293): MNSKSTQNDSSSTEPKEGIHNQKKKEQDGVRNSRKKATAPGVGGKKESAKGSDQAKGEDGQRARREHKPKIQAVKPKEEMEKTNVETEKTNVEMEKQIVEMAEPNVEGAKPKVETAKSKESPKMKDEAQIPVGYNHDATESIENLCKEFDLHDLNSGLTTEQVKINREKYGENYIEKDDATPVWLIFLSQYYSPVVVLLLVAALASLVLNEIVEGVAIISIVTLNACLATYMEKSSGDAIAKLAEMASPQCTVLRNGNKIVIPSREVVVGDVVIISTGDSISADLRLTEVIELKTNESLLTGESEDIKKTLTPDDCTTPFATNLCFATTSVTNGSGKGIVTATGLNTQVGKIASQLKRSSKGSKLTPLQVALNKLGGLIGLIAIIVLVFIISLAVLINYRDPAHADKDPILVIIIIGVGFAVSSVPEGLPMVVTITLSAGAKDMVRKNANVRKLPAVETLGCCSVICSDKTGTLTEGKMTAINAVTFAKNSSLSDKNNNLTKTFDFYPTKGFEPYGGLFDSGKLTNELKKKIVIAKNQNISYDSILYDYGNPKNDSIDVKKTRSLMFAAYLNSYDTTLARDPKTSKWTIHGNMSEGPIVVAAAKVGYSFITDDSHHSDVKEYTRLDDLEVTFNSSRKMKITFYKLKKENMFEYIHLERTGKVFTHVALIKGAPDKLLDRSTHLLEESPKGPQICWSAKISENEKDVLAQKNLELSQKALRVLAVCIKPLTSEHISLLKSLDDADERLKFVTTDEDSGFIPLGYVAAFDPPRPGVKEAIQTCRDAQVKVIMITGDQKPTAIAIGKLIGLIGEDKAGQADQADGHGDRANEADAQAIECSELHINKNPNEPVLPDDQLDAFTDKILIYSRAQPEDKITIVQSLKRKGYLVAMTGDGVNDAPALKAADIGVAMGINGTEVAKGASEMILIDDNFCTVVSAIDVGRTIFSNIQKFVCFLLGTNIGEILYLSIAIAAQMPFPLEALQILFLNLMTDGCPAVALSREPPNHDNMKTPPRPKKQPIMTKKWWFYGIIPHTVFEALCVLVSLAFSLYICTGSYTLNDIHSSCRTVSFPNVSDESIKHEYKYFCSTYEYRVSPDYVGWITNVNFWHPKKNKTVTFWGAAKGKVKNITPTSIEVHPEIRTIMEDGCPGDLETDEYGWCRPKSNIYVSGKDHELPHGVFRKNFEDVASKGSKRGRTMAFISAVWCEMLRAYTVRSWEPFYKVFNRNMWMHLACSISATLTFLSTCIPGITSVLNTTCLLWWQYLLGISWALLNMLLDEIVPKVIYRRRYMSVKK
Text: growth inhibition of orthologue replacement parasite line, SYBR green I (whole-cell read-out) on PkATP4 (PkATP4^OR line)

[6] = biological target: T2, PocATP4 (PocATP4^OR line); assay: SBFI fluorescence of intracellular Na+ in saponin-isolated trophozoites; conditions: 0.1 µM, physiological saline, pH 7.1, 37°C
Text: SBFI fluorescence of intracellular Na+ in saponin-isolated trophozoites on PocATP4 (PocATP4^OR line)

PvATP4 (PvATP4^OR line) [7] = biological target: T1, PvATP4 (PvATP4^OR line); assay: as above; conditions: 0.1 µM, physiological saline, pH 7.1, 37°C
Text: SBFI fluorescence of intracellular Na+ in saponin-isolated trophozoites on PvATP4 (PvATP4^OR line)

PkATP4 (PkATP4^OR line) [8] = biological target: T5, PkATP4 (PkATP4^OR line); assay: as above; conditions: 0.1 µM, physiological saline, pH 7.1, 37°C
Text: SBFI fluorescence of intracellular Na+ in saponin-isolated trophozoites on PkATP4 (PkATP4^OR line)

PfATP4 (PfATP4^OR line) [9] = biological target: T4, PfATP4 (PfATP4^OR line); assay: growth inhibition of orthologue replacement parasite line, SYBR green I (whole-cell read-out); conditions: intact P. knowlesi parasites in erythrocytes, 27 h (one life cycle); not a direct enzyme assay
Text: growth inhibition of orthologue replacement parasite line, SYBR green I (whole-cell read-out) on PfATP4 (PfATP4^OR line)

PmATP4 (PmATP4^OR line) [10] = biological target: T3, PmATP4 (PmATP4^OR line); assay: SBFI fluorescence of intracellular Na+ in saponin-isolated trophozoites; conditions: 0.1 µM, physiological saline, pH 7.1, 37°C
Text: SBFI fluorescence of intracellular Na+ in saponin-isolated trophozoites on PmATP4 (PmATP4^OR line)

T4 sequence (A0A143ZZK9 whole entry): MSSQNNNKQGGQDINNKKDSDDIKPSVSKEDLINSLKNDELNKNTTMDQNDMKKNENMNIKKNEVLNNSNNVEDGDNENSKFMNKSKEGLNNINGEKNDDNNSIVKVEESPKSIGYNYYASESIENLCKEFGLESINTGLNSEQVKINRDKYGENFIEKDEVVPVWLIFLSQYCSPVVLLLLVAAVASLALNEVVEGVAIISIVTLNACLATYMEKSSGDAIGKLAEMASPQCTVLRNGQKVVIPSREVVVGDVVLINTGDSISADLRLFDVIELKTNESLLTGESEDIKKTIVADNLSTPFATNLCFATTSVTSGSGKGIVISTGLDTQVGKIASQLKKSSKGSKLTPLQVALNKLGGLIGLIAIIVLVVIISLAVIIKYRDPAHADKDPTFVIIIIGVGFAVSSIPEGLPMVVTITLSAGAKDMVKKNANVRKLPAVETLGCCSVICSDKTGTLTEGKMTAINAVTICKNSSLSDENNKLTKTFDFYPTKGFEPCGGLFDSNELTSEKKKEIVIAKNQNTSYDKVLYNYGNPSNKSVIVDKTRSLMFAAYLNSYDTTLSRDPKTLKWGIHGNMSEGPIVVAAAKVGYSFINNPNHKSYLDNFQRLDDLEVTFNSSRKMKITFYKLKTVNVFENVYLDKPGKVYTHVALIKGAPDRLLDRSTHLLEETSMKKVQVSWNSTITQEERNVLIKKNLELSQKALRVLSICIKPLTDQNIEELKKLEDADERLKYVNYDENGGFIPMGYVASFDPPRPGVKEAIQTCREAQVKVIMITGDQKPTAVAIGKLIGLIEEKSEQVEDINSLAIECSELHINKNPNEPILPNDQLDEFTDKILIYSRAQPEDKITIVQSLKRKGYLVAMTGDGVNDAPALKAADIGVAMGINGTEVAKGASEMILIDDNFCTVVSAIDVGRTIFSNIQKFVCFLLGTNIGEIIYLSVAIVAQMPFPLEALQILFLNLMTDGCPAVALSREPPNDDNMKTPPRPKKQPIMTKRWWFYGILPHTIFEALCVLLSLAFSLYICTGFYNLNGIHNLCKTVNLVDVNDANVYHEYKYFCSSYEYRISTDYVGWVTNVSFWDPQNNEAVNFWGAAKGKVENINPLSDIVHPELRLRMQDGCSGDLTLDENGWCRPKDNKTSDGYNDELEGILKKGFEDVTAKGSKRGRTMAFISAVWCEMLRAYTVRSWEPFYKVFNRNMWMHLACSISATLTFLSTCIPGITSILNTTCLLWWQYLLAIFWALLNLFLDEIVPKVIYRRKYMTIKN

Compound: C[C@H]1Cc2c([nH]c3cc(Cl)c(F)cc23)[C@@]2(N1)C(=O)Nc1ccc(Cl)cc12 [cipargamin]
- EC50, nM (P value) / Cipargamin (PvATP4 (PvATP4^OR line) [1]): 22.9 ± 4.2 nM
- EC50, nM (P value) / Cipargamin [2]: 34.1 ± 1.6 nM
- EC50, nM (P value) / Cipargamin (PmATP4 (PmATP4^OR line) [3]): 9.44 ± 2.0 nM
- Rate of increase in [Na^+]i 10 min after cipargamin exposure, μM/s (P value) (PfATP4 (PfATP4^OR line) [4]): 203.2 ± 54.1 µM/s
- EC50, nM (P value) / Cipargamin (PkATP4 (PkATP4^OR line) [5]): 13.5 ± 2.4 nM
- Rate of increase in [Na^+]i 10 min after cipargamin exposure, μM/s (P value) [6]: 41.5 ± 8.85 µM/s
- Rate of increase in [Na^+]i 10 min after cipargamin exposure, μM/s (P value) (PvATP4 (PvATP4^OR line) [7]): 96.6 ± 47.3 µM/s
- Rate of increase in [Na^+]i 10 min after cipargamin exposure, μM/s (P value) (PkATP4 (PkATP4^OR line) [8]): 35.8 ± 9.98 µM/s
- EC50, nM (P value) / Cipargamin (PfATP4 (PfATP4^OR line) [9]): 1.62 ± 0.37 nM
- Rate of increase in [Na^+]i 10 min after cipargamin exposure, μM/s (P value) (PmATP4 (PmATP4^OR line) [10]): 35.7 ± 8.07 µM/s
